Structures can show the parent of a compound that is named as a salt. Where two headings read alike, the source gives them in different places.
Test system: iCell cardiomyocytes (human iPSC-derived cardiomyocytes)
Experiment: Intracellular Ca2+ flux / beating parameters in iCell cardiomyocytes (FLIPR tetra), 90 min or 24 h
Assay type: cell-based
Conditions: Homo sapiens, Cardiomyocyte, 0.00 µM = 100.00; for activity at 0.1 µM: 0.10 µM
Experimental: Details on cardiomyocyte cell culture are described in detail elsewhere ([Grimm et al. 2015b]; [Sirenko et al. 2013a]). Briefly, tissue-culture treated 384 well plates were gelatinized with 25μL per well of 0.1% (w/v) gelatin in water for 2 h at 37°C and 5% CO2 . Individual vials of cells were thawed for 4 min in a water bath maintained at 37°C. Thawed cells were resuspended in 10ml plating medium containing 1:500 (vol/vol) penicillin/streptomycin solution at room temperature (RT). Live cell counts for each cell suspension were determined by trypan blue staining and cells were further diluted to provide final cell densities of 2×10^5 viable cells/ml. Thus, 5,000 cells suspended in 25μL media were transferred per well after the gelatin solution had been discarded. Cell culture plates were rested for 30 min at RT before they were incubated for 48 h at 37°C and 5% CO2 . Then, a media exchange with 30μL of fresh maintenance medium containing 1:500 (vol/vol) penicillin/streptomycin solution was performed, and cell media were subsequently changed every 48 h for 12 d. On the experiment day, the medium was completely exchanged with either 25μL (for Ca^2+ flux assay) or 40μL (for imaging) of fresh medium.
Responses of iCell®-cardiomyocytes to drugs and chemicals were evaluated using intracellular Ca^2+ flux measurements ([Grimm et al. 2015b]; [Sirenko et al. 2013b]). For experiments, 20 mM stock solutions of PCBs and PCB metabolites were prepared in DMSO ( 200× ). Chemical working solutions ( 5× ) were prepared using cardiomyocyte maintenance medium and contained 2.5% (vol/vol) DMSO. These chemical master plates were prepared to include all chemicals in concentration–response (0.05, 0.5, 5, 50, and 500μM ). Negative controls included media-only and vehicle control (i.e., 0.5% vol/vol DMSO in cell culture media) wells. Positive assay controls were consistent with previously published reports ([Grimm et al. 2018]) and included TAB ( 50μM ) as a cytotoxic control, and isoproterenol ( 0.1–10μM ), propranolol ( 0.1–5 μM ), cisapride ( 0.01–1μM ), and doxorubicin ( 0.1–5μM ) as chemicals associated with specific effects on beating and ion flux. Each test chemical was screened in triplicate for each concentration.
Experiments started with the addition of 25μL of prewarmed 2× concentrated calcium dye reagent to sample wells containing 25μL maintenance media. Microplates were then acclimated for 2 h at 37°C. Following equilibration, cardiomyocyte sample wells were treated simultaneously by the addition of 12.5μL of prewarmed 5× chemical solution to iCell®-cardiomyocytes using the automated liquid handler in the FLIPR tetra (Molecular Devices). Treated cell cultures were incubated for either 90 min or 24 h. After the conclusion of the treatment period, the Ca^2+ flux was measured for 100 s at a frequency of 8 Hz using the integrated fluorescence plate reader in the FLIPR tetra (Molecular Devices) using an emission wavelength range of λemission=515–575 nm ( λexcitation=470–495 nm ). Additional instrument settings included exposure time per read of 0.05s, a gain of 2000, an excitation intensity of 30%, and an internal temperature of 37°C.
Ca^2+ flux data were processed in R studio (version 1.0.136, with R version 3.3.2; R Development Core Team) as described elsewhere ([Blanchette et al. 2019]; [Burnett et al. 2019]). Calculated quantitative metrics included the means and coefficients of variation (CV) of the peak height, which can be indicative of cytotoxicity, inhibition, or stimulation of beating. Means of peak frequency, an indicator of positive or negative […], and CV of peak spacing, an indicator of irregular beating, were also derived from Ca^2+ flux traces. Finally, the mean ratio of the decay over rise time was calculated. Increases in the decay/rise time ratio are reflective of delayed repolarization and are a measure for QT prolongation. […]

[1] = 1.5 h, read-out: cm.amp.avg.90min
[2] = 1.5 h, read-out: cm.amp.cv.90min
[3] = 1.5 h, read-out: cm.decay.rise.90min
[4] = 1.5 h, read-out: cm.spacing.cv.90min
[5] = 24 h, read-out: cm.amp.avg.24hrs
[6] = 24 h, read-out: cm.amp.cv.24hrs
[7] = 24 h, read-out: cm.decay.rise.24hrs
[8] = 24 h, read-out: cm.spacing.cv.24hrs

O=S(=O)(O)Oc1cc(Cl)ccc1-c1ccccc1 [2-yl PCB 3 sulfate]
activity at 0.01 µM [1]: 107%
activity at 0.01 µM [2]: 102%
activity at 0.01 µM (1.5 h, read-out: cm.bpm.90min): 99.1%
activity at 0.01 µM [3]: 97.6%
activity at 0.01 µM [4]: 134%
activity at 0.1 µM [1]: 107%
activity at 0.1 µM [2]: 90.3%
activity at 0.1 µM (1.5 h, read-out: cm.bpm.90min): 97.8%
activity at 0.1 µM [3]: 94.2%
activity at 0.1 µM [4]: 100%
activity at 1 µM [1]: 102%
activity at 1 µM [2]: 102%
activity at 1 µM (1.5 h, read-out: cm.bpm.90min): 96.5%
activity at 1 µM [3]: 99.3%
activity at 1 µM [4]: 99.6%
activity at 10 µM [1]: 106%
activity at 10 µM [2]: 107%
activity at 10 µM (1.5 h, read-out: cm.bpm.90min): 96.5%
activity at 10 µM [3]: 97.2%
activity at 10 µM [4]: 90.8%
activity at 100 µM [1]: 114%
activity at 100 µM [2]: 117%
activity at 100 µM (1.5 h, read-out: cm.bpm.90min): 84%
activity at 100 µM [3]: 100%
activity at 100 µM [4]: 99%
activity at 0.01 µM [5]: 117%
activity at 0.01 µM [6]: 119%
activity at 0.01 µM (24 h, read-out: cm.bpm.24hrs): 111%
activity at 0.01 µM [7]: 86.8%
activity at 0.01 µM [8]: 109%
activity at 0.1 µM [5]: 63.4%
activity at 0.1 µM [6]: 37.6%
activity at 0.1 µM (24 h, read-out: cm.bpm.24hrs): 53.5%
activity at 0.1 µM [7]: 43.6%
activity at 0.1 µM [8]: 50.5%
activity at 1 µM [5]: 0%
activity at 1 µM [6]: 0%
activity at 1 µM (24 h, read-out: cm.bpm.24hrs): 0%
activity at 1 µM [7]: 0%
activity at 1 µM [8]: 0%
activity at 10 µM [5]: 121%
activity at 10 µM [6]: 81.4%
activity at 10 µM (24 h, read-out: cm.bpm.24hrs): 92.6%
activity at 10 µM [7]: 98.1%
activity at 10 µM [8]: 91.4%
activity at 100 µM [5]: 97.7%
activity at 100 µM [6]: 85.5%
activity at 100 µM (24 h, read-out: cm.bpm.24hrs): 77.3%
activity at 100 µM [7]: 106%
activity at 100 µM [8]: 86.6%
